Measured values from US11840584B2, “Simple and green method for preparation of acid modified cyclodextrin” (priority 2020, dated 2023).

Experiment: Curcumin retention in curcumin-cyclodextrin inclusion complex solution left standing 10 days
Format: physicochemical
Conditions: 10 days at room temperature without shielding from light

| curcumin remained in the solution [%] | SMILES |
| --- | --- |
| 36.83 | OC[C@H]1O[C@@H]2O[C@H]3[C@H](O)[C@@H](O)[C@@H](O[C@H]4[C@H](O)[C@@H](O)[C@@H](O[C@H]5[C@H](O)[C@@H](O)[C@@H](O[C@H]6[C@H](O)[C@@H](O)[C@@H](O[C@H]7[C@H](O)[C@@H](O)[C@@H](O[C@H]1[C@H](O)[C@H]2O)O[C@@H]7CO)O[C@@H]6CO)O[C@@H]5CO)O[C@@H]4CO)O[C@@H]3CO [α-cyclodextrin] |
| 21.94 | OC[C@H]1O[C@@H]2O[C@H]3[C@H](O)[C@@H](O)[C@@H](O[C@H]4[C@H](O)[C@@H](O)[C@@H](O[C@H]5[C@H](O)[C@@H](O)[C@@H](O[C@H]6[C@H](O)[C@@H](O)[C@@H](O[C@H]7[C@H](O)[C@@H](O)[C@@H](O[C@H]8[C@H](O)[C@@H](O)[C@@H](O[C@H]9[C@H](O)[C@@H](O)[C@@H](O[C@H]1[C@H](O)[C@H]2O)O[C@@H]9CO)O[C@@H]8CO)O[C@@H]7CO)O[C@@H]6CO)O[C@@H]5CO)O[C@@H]4CO)O[C@@H]3CO [γ-cyclodextrin] |
| 32.30 | OC[C@H]1O[C@@H]2O[C@H]3[C@H](O)[C@@H](O)[C@@H](O[C@H]4[C@H](O)[C@@H](O)[C@@H](O[C@H]5[C@H](O)[C@@H](O)[C@@H](O[C@H]6[C@H](O)[C@@H](O)[C@@H](O[C@H]7[C@H](O)[C@@H](O)[C@@H](O[C@H]8[C@H](O)[C@@H](O)[C@@H](O[C@H]1[C@H](O)[C@H]2O)O[C@@H]8CO)O[C@@H]7CO)O[C@@H]6CO)O[C@@H]5CO)O[C@@H]4CO)O[C@@H]3CO [β-cyclodextrin] |
